Source: patent publication US20210255193A1, “LYSINE REACTIVE PROBES AND USES THEREOF” (The Scripps Research Institute, priority 2017, published 2021)

Assays:
[1] = molecular target: T1, GBAS Protein NipSnap homolog 2 (Homo sapiens, UniProt O75323); test: competitive isoTOP-ABPP; type: binding; conditions: 50 uM, in vitro; for R value (DMSO/fragment) for probe 1 labeling: O75323_K75; for R value (DMSO/fragment) for probe 1 labeling / isoTOP-ABPP reactivity ratio at lysine O75323_K75: 231 sol; for isoTOP-ABPP ratio (R) at liganded lysine O75323_K75: sol, 231
T1 construct: isoTOP-ABPP experiments performed in cell lysates (in vitro); endogenous in cells; host or cells: MDA-MB-231 soluble lysate
T1 sequence (O75323 24-286): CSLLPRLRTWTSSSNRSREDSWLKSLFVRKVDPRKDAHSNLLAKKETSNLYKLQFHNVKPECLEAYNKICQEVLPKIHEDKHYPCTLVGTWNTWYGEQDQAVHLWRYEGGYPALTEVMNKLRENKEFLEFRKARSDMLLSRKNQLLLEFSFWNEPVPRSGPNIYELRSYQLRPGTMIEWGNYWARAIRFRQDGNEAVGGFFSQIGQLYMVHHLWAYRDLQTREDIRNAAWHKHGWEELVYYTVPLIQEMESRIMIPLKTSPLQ
In short: (§1)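 Competition format: fragment (50 μM activated ester, 100 μM guanidinylating agent) versus vehicle in lysate, then lysine probe STP-alkyne at 0.1 mM for 1 h. Quantitation by light/heavy TEV-tag MS1 peak areas, reported as R.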

[2] = molecular target: T2, STRN3 Striatin-3 (Homo sapiens, UniProt Q13033); test: competitive isoTOP-ABPP; type: binding; conditions: 50 uM, in vitro; for R value (DMSO/fragment) for probe 1 labeling: Q13033_K755; for R value (DMSO/fragment) for probe 1 labeling / isoTOP-ABPP reactivity ratio at lysine Q13033_K755: 231 sol; for isoTOP-ABPP ratio (R) at liganded lysine Q13033_K755: sol, 231
T2 construct: isoTOP-ABPP experiments performed in cell lysates (in vitro); endogenous in cells; host or cells: soluble proteome of human cancer cell lines (MDA-MB-231, Ramos, Jurkat)
T2 sequence (Q13033 1-797): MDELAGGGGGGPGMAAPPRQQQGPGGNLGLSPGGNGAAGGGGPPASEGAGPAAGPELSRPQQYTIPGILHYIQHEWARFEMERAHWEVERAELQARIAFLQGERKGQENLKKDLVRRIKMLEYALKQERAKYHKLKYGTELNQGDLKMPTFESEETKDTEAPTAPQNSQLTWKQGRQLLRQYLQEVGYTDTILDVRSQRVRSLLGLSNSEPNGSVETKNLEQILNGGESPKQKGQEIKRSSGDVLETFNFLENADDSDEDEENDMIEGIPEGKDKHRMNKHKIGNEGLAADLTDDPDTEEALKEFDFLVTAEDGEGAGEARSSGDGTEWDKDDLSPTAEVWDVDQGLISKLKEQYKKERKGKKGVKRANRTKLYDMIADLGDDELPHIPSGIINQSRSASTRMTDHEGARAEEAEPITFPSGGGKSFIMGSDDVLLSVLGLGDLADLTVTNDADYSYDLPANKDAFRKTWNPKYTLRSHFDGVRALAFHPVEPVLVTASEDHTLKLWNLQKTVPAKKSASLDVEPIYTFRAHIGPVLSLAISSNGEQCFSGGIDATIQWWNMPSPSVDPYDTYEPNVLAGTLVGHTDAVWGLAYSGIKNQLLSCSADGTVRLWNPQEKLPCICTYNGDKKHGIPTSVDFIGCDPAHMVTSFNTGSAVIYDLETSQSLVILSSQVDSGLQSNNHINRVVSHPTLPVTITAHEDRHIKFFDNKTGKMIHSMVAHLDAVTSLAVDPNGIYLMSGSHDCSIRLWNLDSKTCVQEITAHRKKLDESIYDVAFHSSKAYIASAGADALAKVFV
In short: as §1

Q: Which “R value (DMSO/fragment) for probe 1 labeling” value (“R value (DMSO/fragment)” below) [1] does the source give for `O=C(CCc1cn(-c2ccccc2)nc1-c1ccccc1)Oc1c(F)c(F)c(F)c(F)c1F` [fragment 19, Pentafluorophenyl 3-(1,3-diphenyl-1H-pyrazol-4-yl)propanoate] here?
A: 1.0

Q: And the “R value (DMSO/fragment)” value [2]?
A: 0.9

Q: With `O=C(Oc1c(F)c(F)c(F)c(F)c1F)C(c1ccccc1)c1ccccc1` [fragment 20, Pentafluorophenyl 2,2-diphenylacetate] as the compound, how does the “R value (DMSO/fragment)” value [1] read?
A: 0.9

Q: And the “R value (DMSO/fragment)” value [2]?
A: 0.9

Q: How did the “R value (DMSO/fragment)” value [1] turn out when `O=C(Oc1c(F)c(F)c(F)c(F)c1F)c1cc(C(F)(F)F)cc(C(F)(F)F)c1` [fragment 21, Pentafluorophenyl 3,5-bis(trifluoromethyl)benzoate] was run?
A: 0.8

Q: What about the “R value (DMSO/fragment)” value [2] of the same compound?
A: 0.9

Q: What does the source list for `Cn1cc(CC(=O)Oc2c(F)c(F)c(F)c(F)c2F)c2ccccc21` [fragment 22, Pentafluorophenyl 2-(1-methyl-1H-indol-3-yl)acetate]?
A: R value (DMSO/fragment) for probe 1 labeling [1]: 1.5; R value (DMSO/fragment) for probe 1 labeling [2]: 1.0

Q: How did the “R value (DMSO/fragment)” value [1] turn out when `COc1cc(CCC(=O)Oc2c(F)c(F)c(F)c(F)c2F)cc(OC)c1OC` [fragment 23, Pentafluorophenyl 3-(3,4,5-trimethoxyphenyl)propanoate] was run?
A: 1.1

Q: And the “R value (DMSO/fragment)” value [2]?
A: 1.2

Q: Which results are given for `O=C(Oc1c(F)c(F)c(F)c(F)c1F)C1CCN(C(=O)OCc2ccccc2)CC1` [fragment 24, 1-Benzyl 4-(pentafluorophenyl) piperidine-1,4-dicarboxylate]?
A: isoTOP-ABPP reactivity ratio at lysine O75323_K75 [1]: 1.0; isoTOP-ABPP reactivity ratio at lysine Q13033_K755 [2]: 1.1

Q: `O=C(Oc1c(F)c(F)c(F)c(F)c1F)c1ccc2ccccc2n1` [fragment 25, Pentafluorophenyl quinoline-2-carboxylate] was tested. Which “isoTOP-ABPP reactivity ratio at lysine O75323_K75” value [1] did it give?
A: 1.4

Q: And the “isoTOP-ABPP reactivity ratio at lysine Q13033_K755” value [2]?
A: 1.0

Q: Which “isoTOP-ABPP reactivity ratio at lysine O75323_K75” value [1] does the source give for `O=C(CCc1coc2cc(F)ccc2c1=O)Oc1c(F)c(F)c(F)c(F)c1F` [fragment 26, Pentafluorophenyl 3-(7-fluoro-4-oxo-4H-chromen-3-yl)propanoate] here?
A: 4.2

Q: And the “isoTOP-ABPP reactivity ratio at lysine Q13033_K755” value [2]?
A: 1.0

Q: With `O=C(CN1C(=O)c2ccccc2C1=O)Oc1c(F)c(F)c(F)c(F)c1F` [fragment 27, Pentafluorophenyl 2-(1,3-dioxoisoindolin-2-yl)acetate] as the compound, how does the “isoTOP-ABPP reactivity ratio at lysine O75323_K75” value [1] read?
A: 20.0

Q: And the “isoTOP-ABPP reactivity ratio at lysine Q13033_K755” value [2]?
A: 1.0

Q: `CCn1cc(C(=O)Oc2c(F)c(F)c(F)c(F)c2F)c(=O)c2ccc(C)nc21` [fragment 28, Pentafluorophenyl 1-ethyl-7-methyl-4-oxo-1,4-dihydro-1,8-naphthyridine-3-carboxylate] was tested. Which “isoTOP-ABPP reactivity ratio at lysine O75323_K75” value [1] did it give?
A: 1.0

Q: And the “isoTOP-ABPP reactivity ratio at lysine Q13033_K755” value [2]?
A: 0.9

Q: `O=C(CCc1cn(-c2ccccc2)nc1-c1ccccc1)Oc1ccc([N+](=O)[O-])cc1[N+](=O)[O-]` [fragment 29, 2,4-Dinitrophenyl 3-(1,3-diphenyl-1H-pyrazol-4-yl)propanoate] was tested. Which “isoTOP-ABPP reactivity ratio at lysine O75323_K75” value [1] did it give?
A: 1.0

Q: What about the “isoTOP-ABPP reactivity ratio at lysine Q13033_K755” value [2] of the same compound?
A: 1.1

Q: For `O=C(Oc1ccc([N+](=O)[O-])cc1[N+](=O)[O-])C(c1ccccc1)c1ccccc1` [fragment 30, 2,4-Dinitrophenyl 2,2-diphenylacetate], which “isoTOP-ABPP reactivity ratio at lysine O75323_K75” value [1] is on record?
A: 1.1

Q: And the “isoTOP-ABPP reactivity ratio at lysine Q13033_K755” value [2]?
A: 2.0

Q: Which results are given for `O=C(Oc1ccc([N+](=O)[O-])cc1[N+](=O)[O-])c1cc(C(F)(F)F)cc(C(F)(F)F)c1` [fragment 31, 2,4-Dinitrophenyl 3,5-bis(trifluoromethyl)benzoate]?
A: isoTOP-ABPP reactivity ratio at lysine O75323_K75 [1]: 0.8; isoTOP-ABPP reactivity ratio at lysine Q13033_K755 [2]: 1.4

Q: For `Cn1cc(CC(=O)Oc2ccc([N+](=O)[O-])cc2[N+](=O)[O-])c2ccccc21` [fragment 32, 2,4-Dinitrophenyl 2-(1-methyl-1H-indol-3-yl)acetate], which “isoTOP-ABPP reactivity ratio at lysine Q13033_K755” value [2] is on record?
A: 2.7

Q: Which “isoTOP-ABPP reactivity ratio at lysine O75323_K75” value [1] does the source give for `COc1cc(CCC(=O)Oc2ccc([N+](=O)[O-])cc2[N+](=O)[O-])cc(OC)c1OC` [fragment 33, 2,4-Dinitrophenyl 3-(3,4,5-trimethoxyphenyl)propanoate] here?
A: 3.0

Q: And the “isoTOP-ABPP reactivity ratio at lysine Q13033_K755” value [2]?
A: 1.8

Q: Which “isoTOP-ABPP ratio (R) at liganded lysine Q13033_K755” value [2] does the source give for `O=C(Oc1ccc([N+](=O)[O-])cc1[N+](=O)[O-])C1CCN(C(=O)OCc2ccccc2)CC1` [fragment 34, 1-Benzyl 4-(2,4-dinitrophenyl) piperidine-1,4-dicarboxylate] here?
A: 3.7

Q: For `O=C(Oc1ccc([N+](=O)[O-])cc1[N+](=O)[O-])c1ccc2ccccc2n1` [fragment 35, 2,4-Dinitrophenyl quinoline-2-carboxylate], which “isoTOP-ABPP ratio (R) at liganded lysine O75323_K75” value [1] is on record?
A: 1.6

Q: What about the “isoTOP-ABPP ratio (R) at liganded lysine Q13033_K755” value [2] of the same compound?
A: 1.0

Q: What does the source list for `O=C(CCc1coc2cc(F)ccc2c1=O)Oc1ccc([N+](=O)[O-])cc1[N+](=O)[O-]` [fragment 36, 2,4-Dinitrophenyl 3-(7-fluoro-4-oxo-4H-chromen-3-yl)propanoate]?
A: isoTOP-ABPP ratio (R) at liganded lysine O75323_K75 [1]: 20.0; isoTOP-ABPP ratio (R) at liganded lysine Q13033_K755 [2]: 1.3

Q: How did the “isoTOP-ABPP ratio (R) at liganded lysine O75323_K75” value [1] turn out when `O=C(Oc1ccc([N+](=O)[O-])cc1[N+](=O)[O-])c1ccc(-c2ccccc2)cc1` [fragment 37, 2,4-Dinitrophenyl [1,1′-biphenyl]-4-carboxylate] was run?
A: 1.6

Q: What about the “isoTOP-ABPP ratio (R) at liganded lysine Q13033_K755” value [2] of the same compound?
A: 0.8

Q: Which results are given for `O=C(CC12CC3CC(CC(C3)C1)C2)Oc1ccc([N+](=O)[O-])cc1[N+](=O)[O-]` [fragment 38, 2,4-Dinitrophenyl 2-(adamantan-1-yl)acetate]?
A: isoTOP-ABPP ratio (R) at liganded lysine O75323_K75 [1]: 1.3; isoTOP-ABPP ratio (R) at liganded lysine Q13033_K755 [2]: 0.9

Q: Which “isoTOP-ABPP ratio (R) at liganded lysine O75323_K75” value [1] does the source give for `O=C(Oc1ccc([N+](=O)[O-])cc1[N+](=O)[O-])c1ccc(Oc2ccccc2)cc1` [fragment 39, 2,4-Dinitrophenyl 4-phenoxybenzoate] here?
A: 20.0

Q: And the “isoTOP-ABPP ratio (R) at liganded lysine Q13033_K755” value [2]?
A: 0.9

Q: For `O=C(Oc1ccc([N+](=O)[O-])cc1[N+](=O)[O-])c1ccccc1Nc1cccc(C(F)(F)F)c1` [fragment 40, 2,4-Dinitrophenyl 2-((3-(trifluoromethyl)phenyl)amino)benzoate], which “isoTOP-ABPP ratio (R) at liganded lysine O75323_K75” value [1] is on record?
A: 1.0

Q: And the “isoTOP-ABPP ratio (R) at liganded lysine Q13033_K755” value [2]?
A: 1.2

Q: For `CC(C)(C)OC(=O)NCCCC(=O)Oc1ccc([N+](=O)[O-])cc1[N+](=O)[O-]` [fragment 41, 2,4-Dinitrophenyl 4-((tert-butoxycarbonyl)amino)butanoate], which “isoTOP-ABPP ratio (R) at liganded lysine O75323_K75” value [1] is on record?
A: 1.8

Q: And the “isoTOP-ABPP ratio (R) at liganded lysine Q13033_K755” value [2]?
A: 1.3

Q: `O=C(Oc1ccc([N+](=O)[O-])cc1[N+](=O)[O-])C(c1ccccc1)(c1ccccc1)c1ccccc1` [fragment 42, 2,4-Dinitrophenyl 2,2,2-triphenylacetate] was tested. Which “isoTOP-ABPP ratio (R) at liganded lysine O75323_K75” value [1] did it give?
A: 0.9

Q: What about the “isoTOP-ABPP ratio (R) at liganded lysine Q13033_K755” value [2] of the same compound?
A: 0.9

Q: Which “isoTOP-ABPP ratio (R) at liganded lysine O75323_K75” value [1] does the source give for `CC(=O)Oc1ccc([N+](=O)[O-])cc1[N+](=O)[O-]` [fragment 43, 2,4-Dinitrophenyl acetate] here?
A: 1.6
